Laboratory results: the NIST ThermoML archive (doi:10.1021/je049973v)
± gives the expanded uncertainty stated by the source.

Details: Liquid; for speed of sound: Pulse-echo method; for mass density: Vibrating tube method

CCCCCCCCCCCCCCCCCCc1ccccc1 [octadecylbenzene]
Details | mass density, 353.15 K [kg/m3] | mass density, 363.15 K [kg/m3] | mass density, 373.15 K [kg/m3] | speed of sound, 343.15 K [m/s] | speed of sound, 353.15 K [m/s] | speed of sound, 363.15 K [m/s] | speed of sound, 373.15 K [m/s]
100 kPa | 814.1 ± 1.2 | 807.7 ± 1.2 | 800.89 ± 1.1 | – | 1260.7 ± 3.3 | 1229.5 ± 3.2 | 1198.7 ± 3.2
5000 kPa | 817.72 ± 1.2 | 811.19 ± 1.2 | 804.86 ± 1.2 | – | – | – | –
10000 kPa | 821.14 ± 1.2 | 814.87 ± 1.2 | 808.59 ± 1.2 | – | 1313.4 ± 3.4 | 1284.8 ± 3.3 | 1255.2 ± 3.3
15000 kPa | 824.47 ± 1.2 | 818.14 ± 1.2 | 812.16 ± 1.2 | – | – | – | –
20000 kPa | – | – | – | – | 1364.1 ± 3.4 | 1334.9 ± 3.4 | 1308.3 ± 3.3
25000 kPa | 830.64 ± 1.2 | 824.7 ± 1.2 | 818.84 ± 1.2 | – | – | – | –
30000 kPa | 833.58 ± 1.2 | 827.83 ± 1.2 | 821.97 ± 1.2 | – | 1410 ± 3.5 | 1382.7 ± 3.5 | 1356.6 ± 3.4
35000 kPa | 836.52 ± 1.2 | 830.62 ± 1.2 | 825.09 ± 1.2 | – | – | – | –
40000 kPa | 839.12 ± 1.2 | 833.38 ± 1.2 | 828 ± 1.2 | – | 1454 ± 3.6 | 1427.1 ± 3.5 | 1401.7 ± 3.5
45000 kPa | 841.72 ± 1.2 | 836.17 ± 1.2 | 830.8 ± 1.2 | – | – | – | –
50000 kPa | 844.35 ± 1.3 | 838.78 ± 1.2 | 833.6 ± 1.2 | – | 1494.4 ± 3.7 | 1469.1 ± 3.6 | 1444.5 ± 3.6
55000 kPa | 846.91 ± 1.3 | 841.42 ± 1.3 | 836.29 ± 1.3 | – | – | – | –
60000 kPa | 849.39 ± 1.3 | 843.92 ± 1.3 | 838.88 ± 1.3 | – | 1532.6 ± 3.7 | 1508.3 ± 3.7 | 1484.7 ± 3.6
70000 kPa | – | – | – | 1594.2 ± 3.8 | 1569.2 ± 3.8 | 1545.7 ± 3.7 | 1522 ± 3.7
80000 kPa | – | – | – | 1628.6 ± 3.9 | 1604.3 ± 3.8 | 1581.7 ± 3.8 | 1558.6 ± 3.8
90000 kPa | – | – | – | 1661.5 ± 3.9 | 1638.2 ± 3.9 | 1615.7 ± 3.9 | 1592.9 ± 3.8
100000 kPa | – | – | – | 1693.1 ± 4 | 1670.3 ± 4 | 1648.3 ± 3.9 | 1626.3 ± 3.9
110000 kPa | – | – | – | 1723.6 ± 4.1 | 1701.4 ± 4 | 1679.8 ± 4 | 1657.9 ± 3.9
120000 kPa | – | – | – | 1753.5 ± 4.1 | 1731.3 ± 4.1 | 1710 ± 4 | 1688.5 ± 4
130000 kPa | – | – | – | 1781.9 ± 4.2 | 1759.9 ± 4.1 | 1739.2 ± 4.1 | 1718.7 ± 4
140000 kPa | – | – | – | 1809.4 ± 4.2 | 1788.8 ± 4.2 | 1767.5 ± 4.1 | 1746.6 ± 4.1
150000 kPa | – | – | – | 1836.3 ± 4.3 | 1815.1 ± 4.2 | 1795.5 ± 4.2 | 1774.6 ± 4.1
